Results as given in patent US12390446B2 (RESEARCH TRIANGLE INSTITUTE, priority 2017, dated 2025).
Several values for one entry are separate records, joined by “and”; a condition that tells them apart may be missing. Identical values can stand only once. Like-named read-outs stand apart in the source and are kept apart here. Values belong to the molecule of their own block, whether it stands above or below them.

Legend:
[1] = target: NPFF2 receptor (human NPFFR2-CHO cells) (Homo sapiens, UniProt Q9Y5X5); experiment: Lance cAMP functional Ke assay, NPFF2; assay type: cell-based; conditions: Table 5
NPFF2 receptor (human NPFFR2-CHO cells), sequence (Q9Y5X5 whole entry): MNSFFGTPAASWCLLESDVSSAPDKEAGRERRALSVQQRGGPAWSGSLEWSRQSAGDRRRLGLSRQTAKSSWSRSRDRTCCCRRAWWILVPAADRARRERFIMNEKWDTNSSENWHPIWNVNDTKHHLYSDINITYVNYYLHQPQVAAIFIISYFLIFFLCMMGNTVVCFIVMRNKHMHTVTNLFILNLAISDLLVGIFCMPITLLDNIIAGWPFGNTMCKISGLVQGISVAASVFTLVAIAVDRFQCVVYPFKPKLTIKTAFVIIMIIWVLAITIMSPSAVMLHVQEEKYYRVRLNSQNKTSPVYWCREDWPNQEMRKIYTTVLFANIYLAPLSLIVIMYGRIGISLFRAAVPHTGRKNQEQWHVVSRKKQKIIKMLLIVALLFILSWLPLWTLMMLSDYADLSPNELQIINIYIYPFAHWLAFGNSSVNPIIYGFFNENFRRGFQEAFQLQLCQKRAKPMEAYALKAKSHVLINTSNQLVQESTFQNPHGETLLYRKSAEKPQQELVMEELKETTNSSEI
Protocol: (§1) Kinetic solubility and bidirectional MDCK-MDR1 permeability assays of the compounds were performed by Paraza Pharma Inc. (Montreal, Canada) according to their standard protocols.
(§2) cAMP assay. Stable human NPFFR1-CHO (ES-491-C) and NPFFR2-CHO (ES-490-C) cell lines were purchased from PerkinElmer and used with the Lance@ Ultra kit (TRF0262) to detect cAMP accumulation in low volume 96-well plates. Stimulation buffer containing 1× HBSS, 5 mM HEPES, 0.1% BSA stabilizer, and 0.5 mM IBMX was prepared and titrated to 7.4 at room temperature.
(§3) A single concentration of each test compound was prepared at 4× the desired final concentration in 2% DMSO/stimulation buffer and 5 μL was added to the assay plate.
(§4) Cells were lifted with versene and spun at 270 g for 10 minutes. The cell pellet was resuspended in stimulation buffer and 4,000 cells (10 μL) were added to each well. After incubating for 30 min at RT, Eu-cAMP tracer and uLIGHT-anti-cAMP working solutions were added per the manufacturer's instructions. After incubation at RT for 1 hour, the TR-FRET signal (ex 337 nm) was read on a CLARIOstar multimode plate reader (BMG Biotech, Cary NC).
(§5) Fluorescence values at 665 nm were plotted against the log of compound concentration using a nonlinear regression analysis to generate EC50 values (GraphPad Prism, GraphPad Software, Inc., San Diego CA). Ke values were calculated using the same equation as described in the calcium mobilization methods.

[2] = target: NPFF1 receptor (human NPFFR1-CHO cells) (Homo sapiens, UniProt Q9GZQ6); experiment: Lance cAMP functional Ke assay, NPFF1; assay type: cell-based; conditions: Table 5
NPFF1 receptor (human NPFFR1-CHO cells), sequence (Q9GZQ6 whole entry): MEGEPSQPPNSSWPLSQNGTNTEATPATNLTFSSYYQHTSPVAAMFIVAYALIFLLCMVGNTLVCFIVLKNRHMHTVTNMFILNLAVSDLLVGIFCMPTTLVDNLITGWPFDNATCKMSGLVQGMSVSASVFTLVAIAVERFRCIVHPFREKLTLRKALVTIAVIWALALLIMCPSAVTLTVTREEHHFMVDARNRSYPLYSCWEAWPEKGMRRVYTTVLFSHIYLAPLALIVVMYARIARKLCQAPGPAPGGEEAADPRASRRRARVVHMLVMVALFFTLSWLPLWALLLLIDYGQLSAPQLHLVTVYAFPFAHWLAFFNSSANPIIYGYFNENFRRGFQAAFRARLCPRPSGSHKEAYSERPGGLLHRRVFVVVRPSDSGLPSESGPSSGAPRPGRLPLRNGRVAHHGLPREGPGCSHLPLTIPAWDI
Protocol: as §1, §2, §3, §4, §5

[3] = target: T1, NPFF1 receptor (CHO-hNPFFR1 membranes) (Homo sapiens, UniProt Q9GZQ6); experiment: Radioligand binding assay, [125I]NPFF, NPFF1; conditions: Table 5; [125I]NPFF displacement
T1 construct: purchased PerkinElmer RBHNF1M400UA; host or cells: CHO cell membranes
T1 sequence (Q9GZQ6 whole entry): as above
Protocol: (§6) Radioligand binding assay. Binding assays were performed according to PerkinElmer's protocol in a final volume of 500 μL of assay buffer (50 mM Tris-HCl, 1 mM MgCl2, 60 mM NaCl, 0.5% BSA, pH 7.4). […] After incubating at 27° C. for 120 minutes, the binding assay was terminated by vacuum filtration onto Unifilter GF/C glass-fiber filters (pre-soaked in 0.1% PEI) using a Brandel (Gaithersburg, MD, USA) 96-well harvester, followed by three washes with ice-cold wash buffer (50 mM Tris-HCl, 0.1% BSA, pH 7.4). The filter plate was dried for 1 hr at 55° C. Microscint 20 (50 μL) was added to each well and filter-bound radioactivity was counted on a Packard TopCount NXT microplate scintillation and luminescence counter.
(§7) Data were fit to a one site (fit Ki) competitive binding model, log EC50=log(10^log Ki*(1+RadioligandNM/HotKdNM)), to generate Ki values for the test compounds using GraphPad Prism (GraphPad Software, Inc., San Diego CA).

[4] = target: T2, NPFF2 receptor (human NPFFR2 in CHO-RD-HGA16 cells) (Homo sapiens, UniProt Q9Y5X5); experiment: Calcium mobilization functional Ke assay, NPFF2; assay type: cell-based
T2 construct: expressed in transfected cells
T2 sequence (Q9Y5X5 whole entry): as the sequence (Q9Y5X5 whole entry) above

[5] = target: T3, NPFF1 receptor (human NPFFR1 in CHO-RD-HGA16 cells) (Homo sapiens, UniProt Q9GZQ6); experiment: Calcium mobilization functional Ke assay, NPFF1; assay type: cell-based
T3 construct: expressed in transfected cells
T3 sequence (Q9GZQ6 whole entry): as the sequence (Q9GZQ6 whole entry) above

[6] = target: T4, NPFF2 receptor (CHO-hNPFFR2 membranes) (Homo sapiens, UniProt Q9Y5X5); experiment: Radioligand binding assay, [125I]NPFF, NPFF2; conditions: Table 5; [125I]NPFF displacement
T4 construct: purchased PerkinElmer RBHNF2M400UA; host or cells: CHO cell membranes
T4 sequence (Q9Y5X5 whole entry): as the sequence (Q9Y5X5 whole entry) above
Protocol: as §6, §7

[7] = Table 1, mean ± SEM, apparent dissociation constant vs NPFF, read-out: NPFF1 Ke
[8] = calcium mobilization assay, read-out: NPFF1 Ke
[9] = Table 3, mean ± SEM, read-out: NPFF2 Ke
[10] = Table 3, mean ± SEM, read-out: NPFF1 Ke
[11] = Table 4, mean ± SEM, read-out: NPFF2 Ke
[12] = Table 4, mean ± SEM, read-out: NPFF1 Ke

Structure (SMILES): COc1ccc(CN[C@H]2C[C@@H](C(=O)NCCc3ccccc3)N(Cc3ccccc3Cl)C2)cc1 [Compound 24, (2S,4S)-1-[(2-Chlorophenyl)methyl]-4-{[(4-methoxyphenyl)methyl]amino}-N-(2-phenylethyl)pyrrolidine-2-carboxamide]
Kb [1]: 3790 nM
Kb [2]: 770 ± 120 nM
Ki [3]: 710 ± 20 nM
Kb ([4]; read-out: Calcium mobilization assay Ke NPFF2): > 10000 nM
Kb ([4]; read-out: NPFF2 Ke): > 10000 nM and 9390 nM
Kb [5, 7]: 850 ± 140 nM
NPFF1 Ke ([5]; Table 4, mean ± SEM): 850 ± 140 nM
Calcium mobilization assay Ke NPFF1 ([5]; Table 5): 850 ± 140 nM
Kb [5, 8]: 850 nM
Ki [6]: 1230 nM

Structure (SMILES): COc1ccc(CCNC(=O)[C@@H]2C[C@H](NCc3ccc(OC)cc3)CN2Cc2ccccc2Cl)cc1 [Compound 26, (2S,4S)-1-[(2-Chlorophenyl)methyl]-N-[2-(4-methoxyphenyl)ethyl]-4-{[(4-methoxyphenyl)methyl]amino}pyrrolidine-2-carboxamide]
Kb [1]: 2560 nM
Kb ([2]; footnote c: pre-incubation of antagonist and receptor 1 hour): 570 ± 150 nM
Ki [3]: 920 ± 30 nM
Kb ([4]; Table 1, footnote c: pre-incubation of antagonist and test compound 45 min or 1 hr, read-out: NPFF2 Ke): 1750 nM
Kb [5, 7]: 670 ± 60 nM
Kb [5, 8]: 670 nM
Ki [6]: 1460 nM

Structure (SMILES): O=C(NCCc1ccc([N+](=O)[O-])cc1)[C@@H]1C[C@H](NCc2ccc(F)cc2)CN1Cc1ccccc1Cl [Compound 64, (2S,4S)-1-[(2-Chlorophenyl)methyl]-4-{[(4-fluorophenyl)methyl]amino}-N-[2-(4-nitrophenyl)ethyl]pyrrolidine-2-carboxamide]
Kb [1]: 960 nM
Kb [2]: 1440 nM
Kb [4, 9]: > 10000 nM
Kb ([4]; Table 5, read-out: Calcium mobilization assay Ke NPFF2): > 10000 nM
Kb [5, 10]: 960 ± 690 nM
preference / selectivity for NPFF1 over NPFF2 ([5]; from calcium mobilization Ke values): more than 10 fold

Structure (SMILES): COc1ccc(CN[C@H]2C[C@@H](C(=O)NCCc3ccccc3)N(Cc3ccc(OC)c(OC)c3)C2)cc1 [Compound 81, (2S,4S)-1-[(3,4-Dimethoxyphenyl)methyl]-4-{[(4-methoxyphenyl)methyl]amino}-N-(2-phenylethyl)pyrrolidine-2-carboxamide]
Kb [4, 11]: 5360 nM
Kb [5, 12]: 9020 nM

Structure (SMILES): COc1ccc(CN[C@H]2C[C@@H](C(=O)NCCc3ccccc3)N(Cc3ccccc3C)C2)cc1 [Compound 82, (2S,4S)-4-{[(4-Methoxyphenyl)methyl]amino}-1-[(2-methylphenyl)methyl]-N-(2-phenylethyl)pyrrolidine-2-carboxamide]
Kb [4, 11]: 3940 nM
Kb [5, 12]: 490 ± 70 nM

Structure (SMILES): COc1ccc(CN[C@H]2C[C@@H](C(=O)NCCc3ccccc3)N(Cc3ccc(C)cc3)C2)cc1 [Compound 83, (2S,4S)-4-{[(4-Methoxyphenyl)methyl]amino}-1-[(4-methylphenyl)methyl]-N-(2-phenylethyl)pyrrolidine-2-carboxamide]
Kb ([4]; read-out: NPFF2 Ke): > 10000 nM
Kb ([5]; read-out: NPFF1 Ke): 1320 nM

Structure (SMILES): COc1ccc(CN[C@H]2C[C@@H](C(=O)NCCc3ccccc3)N(Cc3ccc(O)cc3)C2)cc1 [Compound 84, (2S,4S)-1-[(4-Hydroxyphenyl)methyl]-4-{[(4-methoxyphenyl)methyl]amino}-N-(2-phenylethyl)pyrrolidine-2-carboxamide]
Kb [4, 11]: > 10000 nM
Kb [5, 12]: > 10000 nM

Structure (SMILES): COc1ccc(CN[C@H]2C[C@@H](C(=O)NCCc3ccccc3)N(Cc3ccc4c(c3)OCO4)C2)cc1 [Compound 88, (2S,4S)-1-(2H-1,3-Benzodioxol-5-ylmethyl)-4-{[(4-methoxyphenyl)methyl]amino}-N-(2-phenylethyl)pyrrolidine-2-carboxamide]
Kb [4, 11]: > 10000 nM
Kb [5, 12]: 1860 nM

Next, values leading:

Kb [1]: 2160 nM
Kb [2]: 570 ± 170 nM
Ki [3]: 560 ± 40 nM
Kb [5, 7]: 610 ± 130 nM
Kb [5, 8]: 610 nM
Ki [6]: 1490 nM
Structure (SMILES): COc1ccc(CN[C@H]2C[C@@H](C(=O)NCCc3ccc(F)c(F)c3)N(Cc3ccccc3Cl)C2)cc1 [Compound 34, (2S,4S)-1-[(2-Chlorophenyl)methyl]-N-[2-(3,4-difluorophenyl)ethyl]-4-{[(4-methoxyphenyl)methyl]amino}pyrrolidine-2-carboxamide]

Kb [1]: 1760 nM
Kb [2]: 1550 nM
Kb [4, 9]: 1860 nM
Kb [5, 10]: 680 ± 180 nM
Kb ([5]; Table 5, read-out: Calcium mobilization assay Ke NPFF1): 510 ± 180 nM
Structure (SMILES): O=C(NCCc1ccc([N+](=O)[O-])cc1)[C@@H]1C[C@H](NCc2ccc(Cl)cc2)CN1Cc1ccccc1Cl [Compound 63, (2S,4S)-1-[(2-Chlorophenyl)methyl]-4-{[(4-chlorophenyl)methyl]amino}-N-[2-(4-nitrophenyl)ethyl]pyrrolidine-2-carboxamide]

Kb [4, 11]: 5110 nM
Kb [5, 12]: 1230 nM
Structure (SMILES): COc1ccc(CN[C@H]2C[C@@H](C(=O)NCCc3ccccc3)N(Cc3ccccc3OC)C2)cc1 [Compound 79, (2S,4S)-1-[(2-Methoxyphenyl)methyl]-4-{[(4-methoxyphenyl)methyl]amino}-N-(2-phenylethyl)pyrrolidine-2-carboxamide]

Kb [4, 11]: > 10000 nM
Kb [5, 12]: 2460 nM
Structure (SMILES): COc1ccc(CN[C@H]2C[C@@H](C(=O)NCCc3ccccc3)N(Cc3cccc(OC)c3)C2)cc1 [Compound 80, (2S,4S)-1-[(3-Methoxyphenyl)methyl]-4-{[(4-methoxyphenyl)methyl]amino}-N-(2-phenylethyl)pyrrolidine-2-carboxamide]

Kb [4, 11]: > 10000 nM
Kb [5, 12]: 3510 nM
Structure (SMILES): COc1ccc(CN[C@H]2C[C@@H](C(=O)NCCc3ccccc3)N(Cc3ccc(N(C)C)cc3)C2)cc1 [Compound 85, (2S,4S)-1-{[4-(Dimethylamino)phenyl]methyl}-4-{[(4-methoxyphenyl)methyl]amino}-N-(2-phenylethyl)pyrrolidine-2-carboxamide]

Kb [4, 11]: > 10000 nM
Kb [5, 12]: 3830 nM
Structure (SMILES): COc1ccc(CN[C@H]2C[C@@H](C(=O)NCCc3ccccc3)N(Cc3ccc(C#N)cc3)C2)cc1 [Compound 86, (2S,4S)-1-[(4-Cyanophenyl)methyl]-4-{[(4-methoxyphenyl)methyl]amino}-N-(2-phenylethyl)pyrrolidine-2-carboxamide]

Kb [4, 11]: 7220 nM
Kb [5, 12]: 1720 nM
Structure (SMILES): COc1ccc(CN[C@H]2C[C@@H](C(=O)NCCc3ccccc3)N(Cc3ccc4ccccc4c3)C2)cc1 [Compound 87, (2S,4S)-4-{[(4-Methoxyphenyl)methyl]amino}-1-(naphthalen-2-ylmethyl)-N-(2-phenylethyl)pyrrolidine-2-carboxamide]
